Measured values taken from patent US20250026752A1, “POSITIVE ALLOSTERIC MODULATORS OF THE MUSCARINIC ACETYLCHOLINE RECEPTOR M4” (Vanderbilt University, priority 2021, published 2025).

Target: T1, human mAChR M4 (Homo sapiens, UniProt P08173)
T1 construct: expressed in transfected cells; host or cells: CHO-K1 (ATCC), stably expressing hM4 and Gqi5
T1 sequence (P08173 1-479): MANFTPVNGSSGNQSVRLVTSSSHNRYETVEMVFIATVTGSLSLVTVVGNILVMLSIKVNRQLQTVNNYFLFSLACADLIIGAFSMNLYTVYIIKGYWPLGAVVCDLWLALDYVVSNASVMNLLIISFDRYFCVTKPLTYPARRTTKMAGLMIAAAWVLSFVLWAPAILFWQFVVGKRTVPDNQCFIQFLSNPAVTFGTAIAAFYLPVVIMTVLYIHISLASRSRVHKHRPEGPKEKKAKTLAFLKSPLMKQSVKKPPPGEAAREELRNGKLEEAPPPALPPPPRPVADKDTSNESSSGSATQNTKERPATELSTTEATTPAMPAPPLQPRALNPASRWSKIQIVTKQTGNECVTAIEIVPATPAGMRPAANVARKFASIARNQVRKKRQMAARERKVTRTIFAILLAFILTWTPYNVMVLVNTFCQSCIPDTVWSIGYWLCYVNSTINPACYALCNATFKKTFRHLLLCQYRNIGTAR
Test: mAChR M4 cell-based functional assay: calcium flux (Fluo-4, FDSS), positive allosteric modulator activity on the EC20 acetylcholine response, hM4-Gqi5 CHO-K1 cells
Details: for Emax at 30 µM: CHO-K1, human M4, % ACh maximum at 30 μM; for EC50: human M4, PAM activity on EC20 acetylcholine response, calcium flux, read-out: Human M4 EC50
Method in brief: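 CHO-K1 cells stably expressing human M4 with chimeric Gqi5, loaded with Fluo-4 AM for 50 min at 37° C. Compounds (11-point, 1:3 dilutions) added first, then an acetylcholine EC20 at 144 s; calcium read on FDSS at 1 Hz. EC50 is the half-maximal increase above the EC20 baseline, four-parameter logistic fit.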

| SMILES | Emax at 30 µM | EC50 |
| --- | --- | --- |
| Cn1nccc1Nc1cnc2c(c1)CN(c1nc(N3CCOCC3)nc3ccc(F)cc13)CC2 [Compound 185, 6-(6-fluoro-2-morpholino-quinazolin-4-yl)-N-(2-methylpyrazol-3-yl)-7,8-dihydro-5H-1,6-naphthyridin-3-amine] | 83% | 390 nM |
| FC(F)(F)c1cnc2c(c1)CN(c1nc(C3CC3)nc3ccc(Cl)cc13)CC2 [Compound 186, 6-chloro-2-cyclopropyl-4-[3-(trifluoromethyl)-7,8-dihydro-5H-1,6-naphthyridin-6-yl]quinazoline] | 75% | > 10000 nM |
| Cc1noc(C)c1-c1cnc2c(c1)CN(c1nc(-c3c(C)noc3C)nc3ccc(Cl)cc13)CC2 [Compound 187, 4-[6-chloro-4-[3-(3,5-dimethylisoxazol-4-yl)-7,8-dihydro-5H-1,6-naphthyridin-6-yl]quinazolin-2-yl]-3,5-dimethyl-isoxazole] | 79% | 4150 nM |
| Cc1nn(C)cc1-c1cnc2c(c1)CN(c1nc(-c3cn(C)nc3C)nc3ccc(Cl)cc13)CC2 [Compound 188, 6-chloro-2-(1,3-dimethylpyrazol-4-yl)-4-[3-(1,3-dimethylpyrazol-4-yl)-7,8-dihydro-5H-1,6-naphthyridin-6-yl]quinazoline] | 68% | 1910 nM |
| Cc1ccc2nc(Nc3ccnn3C)nc(N3CCc4ncc(Nc5ccnn5C)cc4C3)c2c1 [Compound 189, 6-methyl-N-(2-methylpyrazol-3-yl)-4-[3-[(2-methylpyrazol-3-yl)amino]-7,8-dihydro-5H-1,6-naphthyridin-6-yl]quinazolin-2-amine] | 127% | 180 nM |
| [2H]c1nc(N2CCc3ncc(C(F)(F)F)cc3C2)c2cc(F)ccc2n1 [Compound 190, 2-deuterio-6-fluoro-4-[3-(trifluoromethyl)-7,8-dihydro-5H-1,6-naphthyridin-6-yl]quinazoline] | 91% | 60 nM |
| Cc1nn(C)cc1-c1cnc2c(c1)CN(c1nc(C3CC3)nc3ccc(Cl)cc13)CC2 [Compound 191, 6-chloro-2-cyclopropyl-4-[3-(1,3-dimethylpyrazol-4-yl)-7,8-dihydro-5H-1,6-naphthyridin-6-yl]quinazoline] | 80% | 1070 nM |
| Clc1ccc2nc(C3CC3)nc(N3CCc4ncc(N5CCCn6nccc65)cc4C3)c2c1 [Compound 192, 6-chloro-2-cyclopropyl-4-[3-(6,7-dihydro-5H-pyrazolo[1,5-a]pyrimidin-4-yl)-7,8-dihydro-5H-1,6-naphthyridin-6-yl]quinazoline] | 100% | 410 nM |
| Cc1nn(C)cc1-c1cnc2c(c1)CN(c1nc(C3CC3)nc3ccc(F)cc13)CC2 [Compound 193, 2-cyclopropyl-4-[3-(1,3-dimethylpyrazol-4-yl)-7,8-dihydro-5H-1,6-naphthyridin-6-yl]-6-fluoro-quinazoline] | 85% | 950 nM |
| Fc1ccc2nc(C3CC3)nc(N3CCc4ncc(N5CCCn6nccc65)cc4C3)c2c1 [Compound 194, 2-cyclopropyl-4-[3-(6,7-dihydro-5H-pyrazolo[1,5-a]pyrimidin-4-yl)-7,8-dihydro-5H-1,6-naphthyridin-6-yl]-6-fluoro-quinazoline] | 10% | 230 nM |
| Fc1ccc2nc(N3CCCC3)nc(N3CCc4ncc(C(F)(F)F)cc4C3)c2c1 [Compound 195, 6-fluoro-2-pyrrolidin-1-yl-4-[3-(trifluoromethyl)-7,8-dihydro-5H-1,6-naphthyridin-6-yl]quinazoline] | 95% | 730 nM |
| Fc1ccc2nc(NC3CC3)nc(N3CCc4ncc(C(F)(F)F)cc4C3)c2c1 [Compound 196, N-cyclopropyl-6-fluoro-4-[3-(trifluoromethyl)-7,8-dihydro-5H-1,6-naphthyridin-6-yl]quinazolin-2-amine] | 98% | 410 nM |
| Cn1nccc1Nc1nc(N2CCc3ncc(C(F)(F)F)cc3C2)c2cc(F)ccc2n1 [Compound 197, 6-fluoro-N-(2-methylpyrazol-3-yl)-4-[3-(trifluoromethyl)-7,8-dihydro-5H-1,6-naphthyridin-6-yl]quinazolin-2-amine] | 98% | 340 nM |

Results, then the molecule that gave them:

| Emax at 30 µM | EC50 | SMILES |
| --- | --- | --- |
| 94% | 670 nM | Fc1ccc2nc(N3CCOc4ncccc43)nc(N3CCc4ncc(C(F)(F)F)cc4C3)c2c1 [Compound 198, 1-[6-fluoro-4-[3-(trifluoromethyl)-7,8-dihydro-5H-1,6-naphthyridin-6-yl]quinazolin-2-yl]-2,3-dihydropyrido[2,3-b][1,4]oxazine] |
| 96% | 3370 nM | Fc1ccc2nc(Oc3ccccc3F)nc(N3CCc4ncc(C(F)(F)F)cc4C3)c2c1 [Compound 199, 6-fluoro-2-(2-fluorophenoxy)-4-[3-(trifluoromethyl)-7,8-dihydro-5H-1,6-naphthyridin-6-yl]quinazoline] |
| 63% | > 10000 nM | Fc1ccc2nc(Nc3ccccc3F)nc(N3CCc4ncc(C(F)(F)F)cc4C3)c2c1 [Compound 200, 6-fluoro-N-(2-fluorophenyl)-4-[3-(trifluoromethyl)-7,8-dihydro-5H-1,6-naphthyriidn-6-yl]quinazolin-2-amine] |
| 97% | 290 nM | OC1(C2CC2)CN(c2nc(N3CCc4ncc(C(F)(F)F)cc4C3)c3cc(F)ccc3n2)C1 [Compound 201, 3-cyclopropyl-1-[6-fluoro-4-[3-(trifluoromethyl)-7,8-dihydro-5H-1,6-naphthyridin-6-yl]quinazolin-2-yl]azetidin-3-ol] |
| 92% | 300 nM | Fc1ccc2nc(NC3CCOC3)nc(N3CCc4ncc(C(F)(F)F)cc4C3)c2c1 (centres unmarked) [Compound 202, 6-fluoro-N-tetrahydrofuran-3-yl-4-[3-(trifluoromethyl)-7,8-dihydro-5H-1,6-naphthyridin-6-yl]quinazolin-2-amine] |
| 90% | 410 nM | CC(C)(O)CNc1nc(N2CCc3ncc(C(F)(F)F)cc3C2)c2cc(F)ccc2n1 [Compound 203, 1-[[6-fluoro-4-[3-(trifluoromethyl)-7,8-dihydro-5H-1,6-naphthyridin-6-yl]quinazolin-2-yl]amino]-2-methyl-propan-2-ol] |
| 93% | 80 nM | [2H]c1nc(N2CCc3ncc(N4CCOc5ncccc54)cc3C2)c2cc(C)ccc2n1 [Compound 204, 1-[6-(2-deuterio-6-methyl-quinazolin-4-yl)-7,8-dihydro-5H-1,6-naphthyridin-3-yl]-2,3-dihydropyrido[2,3-b][1,4]oxazine] |
| 63% | 670 nM | Cc1ccc2nc(N3CCOCC3)nc(N3CCc4ncc(C(F)(F)F)cc4C3)c2c1 [Compound 205, 4-[6-methyl-4-[3-(trifluoromethyl)-7,8-dihydro-5H-1,6-naphthyridin-6-yl]quinazolin-2-yl]morpholine] |
| 74% | 720 nM | Cc1ccc2nc(N3CCCC3)nc(N3CCc4ncc(C(F)(F)F)cc4C3)c2c1 [Compound 206, 6-methyl-2-pyrrolidin-1-yl-4-[3-(trifluoromethyl)-7,8-dihydro-5H-1,6-naphthyridin-6-yl]quinazoline] |
| 75% | 440 nM | Cc1ccc2nc(NC3CCOC3)nc(N3CCc4ncc(C(F)(F)F)cc4C3)c2c1 (centres unmarked) [Compound 207, 6-methyl-N-tetrahydrofuran-3-yl-4-[3-(trifluoromethyl)-7,8-dihydro-5H-1,6-naphthyridin-6-yl]quinazolin-2-amine] |
| 76% | 390 nM | Cc1ccc2nc(NCC(C)(C)O)nc(N3CCc4ncc(C(F)(F)F)cc4C3)c2c1 [Compound 208, 2-methyl-1-[[6-methyl-4-[3-(trifluoromethyl)-7,8-dihydro-5H-1,6-naphthyridin-6-yl]quinazolin-2-yl]amino]propan-2-ol] |
| 50% | > 10000 nM | Fc1cc2c(N3CCc4ncc(C(F)(F)F)cc4C3)nc(N3CCOCC3)nc2cc1Cl [Compound 209, 4-[7-chloro-6-fluoro-4-[3-(trifluoromethyl)-7,8-dihydro-5H-1,6-naphthyridin-6-yl]quinazolin-2-yl]morpholine] |
| 81% | 240 nM | Cn1nccc1Nc1cnc2c(c1)CN(c1nc(N3CCCC3)nc3ccc(F)cc13)CC2 [Compound 210, 6-(6-fluoro-2-pyrrolidin-1-yl-quinazolin-4-yl)-N-(2-methylpyrazol-3-yl)-7,8-dihydro-5H-1,6-naphthyridin-3-amine] |
| 80% | 470 nM | CN1CCN(c2nc(N3CCc4ncc(Nc5ccnn5C)cc4C3)c3cc(F)ccc3n2)CC1 [Compound 211, 6-[6-fluoro-2-(4-methylpiperazin-1-yl)quinazolin-4-yl]-N-(2-methylpyrazol-3-yl)-7,8-dihydro-5H-1,6-naphthyridin-3-amine] |
| 90% | 190 nM | Cn1nccc1Nc1cnc2c(c1)CN(c1nc(NCC(C)(C)O)nc3ccc(F)cc13)CC2 [Compound 212, 1-[[6-fluoro-4-[3-[(2-methylpyrazol-3-yl)amino]-7,8-dihydro-5H-1,6-naphthyridin-6-yl]quinazolin-2-yl]amino]-2-methyl-propan-2-ol] |
